Entries after “also recorded” stand apart in the source; their conditions may differ.
What was measured:
[1] = tested on: DSS induced acute colitis
Source text: In one embodiment, IBD was induced in mice by add DSS into drink water for 7 days. […] (Cooper, S. et al., Clinic pathologic study of dextran sulfate sodium experimental murine colitis, Laboratory Investigation, vol. 69, no. 2, p. 238-249, 1993)
The mice were scarified at day 10th for anatomy and histology evaluations. […] Each of the above histological features was scored individually and added together which is then collectively expressed as “histological score”, for quantitative evaluation (Cooper, S. et al., above).
Male C57BL mice (8-10 weeks, 18-20 g) were grouped into control (drinking water only), DSS and DSS plus treatment groups (n=5). Acute colitis was induced by feeding mice with 2% (w/v) dextran sulfate sodium (DSS) (molecular mass 36-50 kDa) added to the drinking water given ad libitum for 7 days. At the end of seventh day, DSS was removed and animals received only drinking water for 2 days. The animals were euthanized for anatomical and histological examination at the tenth day after DSS ingestion.
R-salbutamol (R-S) (1 mg/kg, S-salbutamol (S-S) (1 mg/kg), R-terbutaline (R-T) (1 mg/kg), S-terbutaline (S-T) (1 mg/kg), R-bambuterol (10 mg/kg), S-bambuterol (S-B) (10 mg/kg), R-clenbuterol (R-C) (1 mg/kg), RS-clenbuterol (RS-C) (2 mg/kg) were administered i.g. daily, starting from the 2nd day of DSS induction for consecutive 8 days. Dexamethasone (Dex), 1 mg/kg) was used as a reference drug.
Evaluation of disease symptoms and histological changes Disease activity index (DAI): Animals were monitored daily for weight, water/food consumption, morbidity, stool consistency and fecal blood. […] The colon length was recorded as an indicator of inflammation. The entire colon was cut open longitudinally and gently flushed with sterile phosphate-buffered saline (PBS) to remove any traces of feces for pathology preparation. Colon segments were fixed in 10% neutral buffered formalin. Tissues were embedded in paraffin, sectioned, mounted on slides. H&E-stained paraffin section images were acquired. Pathological evaluation was conducted in a blinded manner.
Histological Score: the scores were given as follows: epithelium, 0=normal morphology, 1=loss of goblet cells, 2=loss of goblet cells in large areas, 3=loss of crypts, and 4=loss of crypts in large areas; and inflammation cells infiltration, 0=no infiltrate, 1=infiltrate around the crypt basis, 2=infiltrate reaching the muscularis mucosae, 3=extensive infiltration reaching the muscularis mucosae and thickening of the mucosa with abundant edema, and 4=infiltration of the submucosa. Data were presented as mean±the standard deviation (SD).

[2] = tested on: signal transducer and activator of transcription protein (Stat 2); test: Stat 2 mRNA expression in psoriasis mice; assay type: in vivo; settings: plasma of psoriasis mice, dose-response fashion
Source text: (§1) There was enhanced expression of mRNA of Janus kinase 2 (JAK2), a non-receptor tyrosine kinase, and the signal transducer and activator of transcription protein (Stat 2) in the plasma of psoriasis mice in comparison of control, Indicating an increase of JAK2 and Stat 2 proteins. These over expression of mRNA was inhibited by R-salbutamol in a dose-response fashion. (FIG. 3 left & right)

[3] = tested on: DSS induced sub-acute colitis; assay type: in vivo; settings: treatments started at day 7th till day 22nd
Janus kinase 2 (JAK2) = test: JAK2 mRNA expression in psoriasis mice; assay type: in vivo; settings: plasma of psoriasis mice, dose-response fashion
Source text: as §1

psoriasis and eczema = test: Oral administration in rats, psoriasis and eczema; assay type: in vivo
TNBS-induced colitis = TNBS-induced colitis (model for Crohn's disease); assay type: in vivo, Male mice
Source text: Male mice colitis was induced by rectal co-administration of ethanol and TNBS (Trinitrobenzenesulfonic acid). Severe colitis in mice that was characterized by weight loss and diarrhea. Histologically there were loss of normal structures, visible discrete epithelioid granuloma, multiple erosive lesions, massive transmural inflammation infiltration of lymphocytes, and the loss of goblet cells. […] There was significant alleviation of lesions, few inflammatory infiltration with growing crypts and recovery mucosa epithelia along the column. […] In addition, in TNBS treated colitis mice, there were perianal symptoms: erythema, abscesses and ulcers found in some mice, which may lead to perianal fissures or fistulas. […] The therapeutically effects of R-salbuterol, R-clenbuterol and R-bambuterol on the symptoms in TNBS induced Crohn's disease has never been reported in prior art.

[4] = acute DSS colitis, compared with untreated DSS mice

## CC(C)(C)NC[C@H](O)c1ccc(O)c(CO)c1 [R-S, R-salbutamol]
[1]; Example 1, compared with untreated DSS mice
  colon histology (H&E), in words: greatly improved
[1]; acute DSS colitis
  body weight, in words: increased
[1]; [4]
  DAI, in words: significantly improved
  FOB, in words: reduced
  histological score, in words: significantly reduced
  length of colon-rector / shortening of large bowel, in words: shortening of large bowel was reduced
[1]; epithelium 0-4 plus infiltration 0-4, tenth day, 1 mg/kg (R-B, S-B 10 mg/kg; RS-C 2 mg/kg), mean ± SD
  Hist score (histological score): 4 ± 0.5
[1]; grade 0, 2, 4, i.g. daily 8 days, 1 mg/kg (R-B, S-B 10 mg/kg; RS-C 2 mg/kg), mean ± SD
  FOB (fecal occult blood): 0.5 ± 0.5
[1]; i.g. daily 8 days, 1 mg/kg (R-B, S-B 10 mg/kg; RS-C 2 mg/kg), mean ± SD
  Weight: 93 ± 2.8
[1]; score 0 to 12, i.g. daily 8 days from 2nd day of DSS, 1 mg/kg (R-B, S-B 10 mg/kg; RS-C 2 mg/kg), n=5
  DAI (disease active index): 4
[1]; tenth day, i.g. daily 8 days, 1 mg/kg (R-B, S-B 10 mg/kg; RS-C 2 mg/kg), mean ± SD
  Col Length (colon length): 7.7 ± 0.6
[2]
  over expression of mRNA of Stat 2: inhibited
[3]
  therapeutic effects in DSS induced IBD mice: significant therapeutic effects
Janus kinase 2 (JAK2)
  over expression of mRNA of JAK2: inhibited
Psoriasis and eczema
  psoriasis and eczema: significantly ameliorate
TNBS-induced colitis; TNBS treated mice
  perianal manifestations (erythema, abscesses, ulcers): significantly alleviated
  submucosa fibrosis and narrowing of intestinal lumen: not seen; also recorded: significantly reduce the fibrosis and the narrowing of intestinal lumen
TNBS-induced colitis; oral administration
  weight loss, diarrhea, colon length versus normal control mice: No significant different
TNBS-induced colitis; oral administration (R-enantiomers)
  disease condition of TNBS colitis, in words: great ameliorated
